In ChEMBL document CHEMBL5678818, “Discovery of potent SOS1 inhibitors that block RAS activation via disruption of the RAS-SOS1 interaction” (Proc Natl Acad Sci U S A, 2019):

Assays:
[1] = molecular target: G protein-coupled receptor kinase 3 (Homo sapiens) (UniProt P35626); experiment: Inhibition of GRK3 (unknown origin) assessed as residual activity at 1000 nM by KINOMEscan analysis relative to control
[2] = molecular target: T1, Receptor-interacting serine/threonine-protein kinase 4 (Homo sapiens) (UniProt P57078); experiment: Inhibition of RIPK4 (unknown origin) assessed as residual activity at 100 nM by KINOMEscan analysis relative to control
T1 sequence (whole entry): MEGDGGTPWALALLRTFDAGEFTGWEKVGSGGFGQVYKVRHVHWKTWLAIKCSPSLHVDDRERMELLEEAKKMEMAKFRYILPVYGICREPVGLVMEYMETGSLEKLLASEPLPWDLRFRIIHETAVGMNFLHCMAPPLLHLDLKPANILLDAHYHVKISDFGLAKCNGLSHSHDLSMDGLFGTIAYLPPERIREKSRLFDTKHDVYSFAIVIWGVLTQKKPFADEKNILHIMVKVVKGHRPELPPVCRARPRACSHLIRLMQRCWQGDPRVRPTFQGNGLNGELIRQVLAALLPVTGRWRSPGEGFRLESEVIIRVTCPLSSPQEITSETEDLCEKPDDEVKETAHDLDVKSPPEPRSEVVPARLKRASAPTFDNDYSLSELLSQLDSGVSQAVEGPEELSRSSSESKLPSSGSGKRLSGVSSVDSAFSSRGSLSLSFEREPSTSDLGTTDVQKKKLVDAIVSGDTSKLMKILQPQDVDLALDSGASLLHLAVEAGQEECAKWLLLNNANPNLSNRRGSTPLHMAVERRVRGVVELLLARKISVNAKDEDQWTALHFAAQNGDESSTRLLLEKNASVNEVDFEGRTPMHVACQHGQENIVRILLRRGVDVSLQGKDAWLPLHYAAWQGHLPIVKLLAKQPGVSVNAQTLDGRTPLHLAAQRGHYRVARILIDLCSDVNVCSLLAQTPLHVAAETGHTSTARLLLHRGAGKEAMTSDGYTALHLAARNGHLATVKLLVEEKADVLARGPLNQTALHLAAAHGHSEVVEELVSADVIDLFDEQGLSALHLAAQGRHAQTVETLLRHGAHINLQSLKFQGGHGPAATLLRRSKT

[3] = molecular target: T2, Serine/threonine-protein kinase 17A (Homo sapiens) (UniProt Q9UEE5); experiment: Inhibition of DRAK1 (unknown origin) assessed as residual activity at 100 nM by KINOMEscan analysis relative to control
T2 sequence (whole entry): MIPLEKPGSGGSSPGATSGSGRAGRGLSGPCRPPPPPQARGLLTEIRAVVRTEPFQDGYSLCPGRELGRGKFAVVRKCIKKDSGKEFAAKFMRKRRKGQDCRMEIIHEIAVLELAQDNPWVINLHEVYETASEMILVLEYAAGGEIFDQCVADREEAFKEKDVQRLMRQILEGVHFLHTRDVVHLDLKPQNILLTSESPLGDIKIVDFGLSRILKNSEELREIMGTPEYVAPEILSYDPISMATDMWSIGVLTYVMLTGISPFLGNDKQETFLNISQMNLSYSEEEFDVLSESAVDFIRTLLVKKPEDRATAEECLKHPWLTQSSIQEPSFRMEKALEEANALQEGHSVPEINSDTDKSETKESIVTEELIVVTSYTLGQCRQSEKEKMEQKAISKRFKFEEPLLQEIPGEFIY

[4] = molecular target: T3, Serine/threonine-protein kinase Sgk1 (Homo sapiens) (UniProt O00141); experiment: Inhibition of SGK (unknown origin) assessed as residual activity at 100 nM by KINOMEscan analysis relative to control
T3 sequence (whole entry): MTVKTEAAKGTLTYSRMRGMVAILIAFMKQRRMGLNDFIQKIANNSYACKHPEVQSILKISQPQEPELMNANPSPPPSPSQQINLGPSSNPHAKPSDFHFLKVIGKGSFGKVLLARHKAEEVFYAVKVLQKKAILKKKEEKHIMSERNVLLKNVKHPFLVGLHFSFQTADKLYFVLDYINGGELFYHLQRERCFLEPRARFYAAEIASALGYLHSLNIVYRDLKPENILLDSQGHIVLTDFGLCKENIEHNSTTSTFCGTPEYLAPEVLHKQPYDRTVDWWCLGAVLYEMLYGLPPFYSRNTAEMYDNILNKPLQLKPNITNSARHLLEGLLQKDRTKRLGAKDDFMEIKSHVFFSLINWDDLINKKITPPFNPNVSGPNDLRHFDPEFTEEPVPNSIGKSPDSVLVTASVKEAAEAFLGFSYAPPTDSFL

[5] = molecular target: Mitotic checkpoint serine/threonine-protein kinase BUB1 (Homo sapiens) (UniProt O43683); experiment: Inhibition of BUB1 (unknown origin) assessed as residual activity at 100 nM by KINOMEscan analysis relative to control
Sequence of Mitotic checkpoint serine/threonine-protein kinase BUB1 (Homo sapiens) (O43683 whole entry, looked up, canonical isoform): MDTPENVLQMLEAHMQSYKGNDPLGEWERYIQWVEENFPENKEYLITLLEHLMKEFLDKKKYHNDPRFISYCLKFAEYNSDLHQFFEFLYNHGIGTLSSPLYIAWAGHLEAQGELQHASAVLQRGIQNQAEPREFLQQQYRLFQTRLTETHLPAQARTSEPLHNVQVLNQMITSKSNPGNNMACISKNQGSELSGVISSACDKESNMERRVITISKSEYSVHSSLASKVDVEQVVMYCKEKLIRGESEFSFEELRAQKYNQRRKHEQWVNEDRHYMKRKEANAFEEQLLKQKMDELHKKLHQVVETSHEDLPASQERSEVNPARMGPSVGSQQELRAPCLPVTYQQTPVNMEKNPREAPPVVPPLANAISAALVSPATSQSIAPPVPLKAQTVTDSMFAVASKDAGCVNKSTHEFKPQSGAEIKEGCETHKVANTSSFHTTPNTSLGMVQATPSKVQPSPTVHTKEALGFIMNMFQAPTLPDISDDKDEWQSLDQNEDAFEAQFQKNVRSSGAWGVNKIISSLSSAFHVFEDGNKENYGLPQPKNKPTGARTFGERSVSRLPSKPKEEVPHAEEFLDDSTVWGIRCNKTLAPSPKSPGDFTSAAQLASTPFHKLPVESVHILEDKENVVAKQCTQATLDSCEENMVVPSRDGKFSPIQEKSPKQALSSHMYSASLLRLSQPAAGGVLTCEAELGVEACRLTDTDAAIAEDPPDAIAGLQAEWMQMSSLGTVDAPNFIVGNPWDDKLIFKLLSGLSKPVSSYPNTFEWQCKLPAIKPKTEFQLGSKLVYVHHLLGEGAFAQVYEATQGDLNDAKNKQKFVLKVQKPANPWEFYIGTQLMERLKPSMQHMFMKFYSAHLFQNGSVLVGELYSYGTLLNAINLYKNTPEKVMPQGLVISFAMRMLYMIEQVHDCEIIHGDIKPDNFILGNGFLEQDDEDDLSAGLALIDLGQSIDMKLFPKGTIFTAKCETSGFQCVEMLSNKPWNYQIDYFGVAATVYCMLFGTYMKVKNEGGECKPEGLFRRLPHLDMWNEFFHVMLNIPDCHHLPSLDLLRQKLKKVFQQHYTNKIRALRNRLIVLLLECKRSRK

[6] = molecular target: T4, Casein kinase I isoform alpha-like (Homo sapiens) (UniProt Q8N752); experiment: Inhibition of CSNK1A1L (unknown origin) assessed as residual activity at 100 nM by KINOMEscan analysis relative to control
T4 sequence (whole entry): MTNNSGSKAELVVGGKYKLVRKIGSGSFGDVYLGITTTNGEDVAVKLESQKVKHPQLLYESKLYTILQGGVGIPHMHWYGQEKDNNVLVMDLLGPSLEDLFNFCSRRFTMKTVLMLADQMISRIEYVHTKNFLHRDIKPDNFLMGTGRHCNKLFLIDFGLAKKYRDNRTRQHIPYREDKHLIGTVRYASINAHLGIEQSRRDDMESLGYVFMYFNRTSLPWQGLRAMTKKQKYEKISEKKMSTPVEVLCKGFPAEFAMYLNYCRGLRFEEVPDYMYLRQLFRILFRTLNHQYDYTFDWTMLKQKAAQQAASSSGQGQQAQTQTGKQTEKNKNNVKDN

Homo sapiens = species on record: Homo sapiens; experiment: Inhibition of JNK2 (unknown origin) assessed as residual activity at 100 nM by KINOMEscan analysis relative to control
[7] = molecular target: Serine/threonine-protein kinase NIM1 (Homo sapiens) (UniProt Q8IY84); experiment: Inhibition of NIM1 (unknown origin) assessed as residual activity at 100 nM by KINOMEscan analysis relative to control
Sequence of Serine/threonine-protein kinase NIM1 (Homo sapiens) (Q8IY84 whole entry): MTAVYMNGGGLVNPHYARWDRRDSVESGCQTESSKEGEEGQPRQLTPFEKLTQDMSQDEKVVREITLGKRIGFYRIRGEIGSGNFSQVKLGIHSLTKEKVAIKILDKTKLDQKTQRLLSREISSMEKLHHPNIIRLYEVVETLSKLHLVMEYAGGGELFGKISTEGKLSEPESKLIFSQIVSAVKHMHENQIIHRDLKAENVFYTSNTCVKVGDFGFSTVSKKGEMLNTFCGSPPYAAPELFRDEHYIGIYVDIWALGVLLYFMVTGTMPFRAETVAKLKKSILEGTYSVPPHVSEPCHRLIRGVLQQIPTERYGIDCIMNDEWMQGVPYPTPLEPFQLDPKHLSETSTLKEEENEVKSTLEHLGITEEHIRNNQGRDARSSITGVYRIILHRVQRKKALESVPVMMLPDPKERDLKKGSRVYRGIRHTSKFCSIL

Sequence of G protein-coupled receptor kinase 3 (Homo sapiens) (P35626 whole entry): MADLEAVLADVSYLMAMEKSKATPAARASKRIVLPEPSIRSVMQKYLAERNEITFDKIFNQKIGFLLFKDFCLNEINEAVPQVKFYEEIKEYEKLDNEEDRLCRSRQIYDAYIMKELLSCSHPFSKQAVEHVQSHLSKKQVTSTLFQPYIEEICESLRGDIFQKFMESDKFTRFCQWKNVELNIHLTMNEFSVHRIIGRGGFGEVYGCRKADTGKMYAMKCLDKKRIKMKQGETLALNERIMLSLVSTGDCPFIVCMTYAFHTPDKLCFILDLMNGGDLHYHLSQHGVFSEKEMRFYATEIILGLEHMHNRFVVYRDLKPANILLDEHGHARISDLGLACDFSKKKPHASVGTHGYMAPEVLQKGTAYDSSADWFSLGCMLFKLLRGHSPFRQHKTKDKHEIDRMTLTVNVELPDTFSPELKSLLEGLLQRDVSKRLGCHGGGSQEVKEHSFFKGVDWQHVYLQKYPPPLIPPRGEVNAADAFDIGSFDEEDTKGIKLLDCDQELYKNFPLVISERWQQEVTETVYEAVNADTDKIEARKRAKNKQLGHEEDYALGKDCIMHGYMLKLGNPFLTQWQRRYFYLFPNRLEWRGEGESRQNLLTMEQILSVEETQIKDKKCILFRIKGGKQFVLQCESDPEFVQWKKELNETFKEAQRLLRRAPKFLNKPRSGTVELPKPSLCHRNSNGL

Compound	Activity [1]	Activity [2]	Activity [3]	Activity [4]	Activity [5]	Activity [6]	Activity (Homo sapiens)	Activity [7]
COc1cc2nc(C)nc(N[C@H](C)c3cccc(-c4cn[nH]c4)c3)c2cc1OC	76%	–	–	–	–	–	–	–
COc1cc2ncnc(N[C@H](C)c3cccc4ccccc34)c2cc1OC	–	77%	100%	87%	100%	100%	68%	78%
